Data published in US20240166660A1, “KRAS G12C INHIBITORS” (BeiGene Switzerland GmbH, priority 2021, published 2024).

target: KRAS (aa 1-169) G12C, C51S, C80L, C118S (Homo sapiens (Human), UniProt P01116, C118S/C51S/C80L/G12C); test: Biochemical functional assay: SOS1-mediated nucleotide exchange of GDP-loaded KRAS G12C, binding to GST-cRaf RBD, FRET readout; conditions: 3 hrs pre-incubation with compound at 24° C., SOS1, GTPyS, inhibition of nucleotide exchange
Method in brief: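 GDP-loaded His-tagged KRAS construct preincubated with compound 3 h at 24° C in 25 mM HEPES pH7.5, 10 mM MgCl2, 0.01% Triton X-100; SOS1 (aa 564-1049), GTPγS and GST-cRaf RBD added for 3 h, then anti-His Tb cryptate/anti-GST XL665 for 3 h. HTRF 665/620 ratio; IC50 by four-parameter logistic fit.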

Chain of KRAS (aa 1-169) G12C, C51S, C80L, C118S (P01116 other isoform, or with tags, fused parts or gaps G12C/C51S/C80L/C118S): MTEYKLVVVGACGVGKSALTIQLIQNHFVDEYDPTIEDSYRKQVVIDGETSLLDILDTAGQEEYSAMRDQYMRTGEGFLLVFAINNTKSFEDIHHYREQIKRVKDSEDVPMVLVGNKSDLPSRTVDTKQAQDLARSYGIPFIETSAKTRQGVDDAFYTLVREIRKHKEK

Row | SMILES | IC50
1 | C=C(F)C(=O)N1CCN(c2nc(OC[C@@H]3CCCN3C)nc3cc(-c4c(O)cccc4F)c4ccoc4c23)C[C@@H]1CC#N [Compound B39, 2-((2S)-4-(4-(2-fluoro-6-hydroxyphenyl)-7-(((S)-1-methylpyrrolidin-2-yl)methoxy)furo[2,3-f]quinazolin-9-yl)-1-(2-fluoroacryloyl)piperazin-2-yl)acetonitrile] | 1040 nM
2 | C=C(F)C(=O)N1CCN(c2nc(OC[C@@H]3CCCN3C)nc3cc(-c4ccccc4C(F)(F)F)c4ccoc4c23)C[C@@H]1CC#N [Compound B40, 2-((S)-1-(2-fluoroacryloyl)-4-(7-(((S)-1-methylpyrrolidin-2-yl)methoxy)-4-(2-(trifluoromethyl)phenyl)furo[2,3-f]quinazolin-9-yl)piperazin-2-yl)acetonitrile] | 14 nM
3 | C=C(F)C(=O)N1CCN(c2nc(OC[C@@H]3CCCN3C)nc3cc(-c4cccc5cccc(Cl)c45)c4ccoc4c23)C[C@@H]1CC#N [Compound B41, 2-((S)-4-(4-(8-chloronaphthalen-1-yl)-7-(((S)-1-methylpyrrolidin-2-yl)methoxy)furo[2,3-f]quinazolin-9-yl)-1-(2-fluoroacryloyl)piperazin-2-yl)acetonitrile] | 3.8 nM
4 | C=C(F)C(=O)N1CCN(c2nc(OC[C@@H]3CCCN3C)nc3cc(-c4c(F)c(Cl)cc5[nH]ncc45)c4c(c23)OCCC4)C[C@@H]1CC#N [Compound B42, 2-((2S)-4-(5-(6-chloro-5-fluoro-1H-indazol-4-yl)-8-(((S)-1-methylpyrrolidin-2-yl)methoxy)-3,4-dihydro-2H-pyrano[2,3-f]quinazolin-10-yl)-1-(2-fluoroacryloyl)piperazin-2-yl)acetonitrile] | 43 nM
5 | C=C(F)C(=O)N1CCN(c2nc(OC[C@@H]3CCCN3C)nc3cc(-c4cccc5cccc(C)c45)c4c(c23)OCCC4)C[C@@H]1CC#N [Compound B43, 2-((S)-1-(2-fluoroacryloyl)-4-(5-(8-methylnaphthalen-1-yl)-8-(((S)-1-methylpyrrolidin-2-yl)methoxy)-3,4-dihydro-2H-pyrano[2,3-f]quinazolin-10-yl)piperazin-2-yl)acetonitrile] | 13 nM
6 | C=C(F)C(=O)N1CCN(c2nc(OC[C@@H]3CCCN3C)nc3cc(-c4ccccc4F)c4ccoc4c23)CC1 [Compound B44, (S)-2-fluoro-1-(4-(4-(2-fluorophenyl)-7-((1-methylpyrrolidin-2-yl)methoxy)furo[2,3-f]quinazolin-9-yl)piperazin-1-yl)prop-2-en-1-one] | 6350 nM
7 | C=CC(=O)N1CCN(c2nc(OC[C@@H]3CCCN3C)nc3cc(-c4ccccc4F)c4ccoc4c23)CC1 [Compound B45, (S)-1-(4-(4-(2-fluorophenyl)-7-((1-methylpyrrolidin-2-yl)methoxy)furo[2,3-f]quinazolin-9-yl)piperazin-1-yl)prop-2-en-1-one] | 2020 nM
8 | C=CC(=O)N1CCN(c2nc(OC[C@@H]3CCCN3C)nc3cc(-c4c(O)cccc4F)c4ccoc4c23)CC1 [Compound B46, 1-(4-(4-(2-fluoro-6-hydroxyphenyl)-7-(((S)-1-methylpyrrolidin-2-yl)methoxy)furo[2,3-f]quinazolin-9-yl)piperazin-1-yl)prop-2-en-1-one] | 621 nM
9 | C=CC(=O)N1CCN(c2nc(OC3CCCC3N(C)C)nc3cc(-c4cccc5cccc(Cl)c45)c4c(c23)OCCC4)C[C@@H]1CC#N (stereo partly drawn) [Compound B48, 2-((2S)-1-acryloyl-4-(5-(8-chloronaphthalen-1-yl)-8-((2-(dimethylamino)cyclopentyl)oxy)-3,4-dihydro-2H-pyrano[2,3-f]quinazolin-10-yl)piperazin-2-yl)acetonitrile] | 14 nM
10 | C=CC(=O)N1CCN(c2nc(OC[C@@H]3CCCN3C)nc3cc(-c4cccc5cccc(Cl)c45)c4ccoc4c23)[C@@H](C)C1 [Compound B49, 1-((S)-4-(4-(8-chloronaphthalen-1-yl)-7-(((S)-1-methylpyrrolidin-2-yl)methoxy)furo[2,3-f]quinazolin-9-yl)-3-methylpiperazin-1-yl)prop-2-en-1-one] | 128 nM
